Several values for one entry are separate records, joined by “and”; a condition that tells them apart may be missing. Equal entries are not always repeated.
Experiments:
GD3 antibody 4F6 [1] = assay: ELISA of immobilized phage clones with GD3 antibody 4F6 (Example 2); type: binding, mouse; conditions: phage clone immobilized, duplicate lines
Method: (§1) A 0.1M NaHCO3 solution containing each of the phage clones obtained in Example 1 (10^11, 10^10, or 10^9 titer/100 μL) was added to the wells of a 96-well microtiter plate (product of Nunc), for immobilization of the phage clones at room temperature for one hour. The supernatant was removed, then the wells were subjected to blocking by use of a blocking solution ([…]; TBS containing 1% BSA, 0.1% skim milk, and 0.02% Tween 20; pH 7.5) at 37° C. for four hours.
(§2) The supernatant was removed, then GD3 antibody 4F6 (100 μL), serving as a primary antibody, was added to each well for reaction under shaking at room temperature for two hours. After completion of reaction, the supernatant was removed, then the wells were washed six times with a washing solution (400 μL for each well, TBS containing 0.05% Tween 20). Subsequently, a secondary antibody (anti-mouse IgG-HRP, product of Santa Cruz Biotechnology, catalogue No. SC-2031, Lot. No. C089) which was diluted 5,000-fold by use of a blocking solution prepared in advance was added to the wells (100 μL to each well) for reaction under shaking at room temperature for one hour. After completion of reaction, the wells were washed four times with a washing solution (400 μL for each well), then a detection reagent (TMB Microwell; product of KPL, Catalogue No. 50-76-04, Lot. No. WF075) was added to the wells (100 μL to each well), and the mixture was allowed to stand for five minutes at room temperature.
(§3) 1N-Hydrochloric acid (100 μL) was added to each well for stopping the reaction. Absorbance of each well was measured at 450 nm and 620 nm, and “OD450-OD620” was calculated. A Multiscan (product of Labosystems) was used in measurement of absorbance. A well in which phages had not been immobilized served as a blank, and the absorbance of each well was determined by subtracting the blank value from the “as-measured” value.

Anti-OAcGD3 antibody = assay: ELISA of immobilized MAP-form peptides with control anti-OAcGD3 antibody; type: binding; conditions: MAP form 100 ng/well
Method: (§4) A 0.1M NaHCO3 solution containing a GD3-mimetic peptide of the invention in the above MAP form (100 ng/100 μL) was added to the wells of a 96-well micro-titer plate, for immobilization at room temperature for one hour. Subsequently, in a manner similar to the ELISA method employed in Example 2, binding affinity of the GD3-mimetic peptide to GD3 antibody 4F6 was investigated.
(§5) Anti-GD2 antibody and anti-OAcGD3 antibody (Cerato, E., et al., Hybridoma, 16(4), 307-316 (1997)) were used as controls (these antibodies were kindly provided by from Dr. Portoukalian).

GD3 antibody 4F6 [2] = assay: ELISA of immobilized MAP-form GD3-mimetic peptides with anti-GD3 antibody (Example 3(3)); type: binding, mouse; conditions: MAP form 100 ng/well
Method: as §1, §2, §3, §4, §5

[3] = test system: T-cell-rich lymphocytes / IL-2-dependent CTLL2 cells; assay: Cell response test: IL-2 activity (3H thymidine up-take of CTLL2 cells) in supernatant of spleen cells of mice immunized with R4 peptide (R4-KLH); type: cell-based, mouse; conditions: mice immunized with R4 peptide
Method: Using a fusion peptide R4-KLH obtained in Example 3 (4) between GD3R4 and KLH or a MAP form fusion peptide R4MAP-KLH created between GD3R4 and KLH, immunization was performed as described in (1) above.
Briefly, an emulsion mixed with an adjuvant (1:1, by volume) was administered to each member of groups of mice, each group consisting of 3 mice (CD-1), in an amount of 100 μL/mouse (for one administration (ip), peptide 30 μg/mouse) for immunization. In the case of R4-KLH, administration was performed every one week for one month, and subsequently every two weeks for one month; and in the case of R4MAP-KLH, every one week for 2 months. In any case, 4 days after the final immunization, blood was collected to thereby prepare antiserum samples.
(§6) The spleen aseptically removed from each of the above-immunized mice was minced in a 10% FCS-supplemented RPMI 1640 medium. By use of a nylon wool column, T-cell-rich lymphocytes were prepared and the cells were counted. The above medium containing the cells in an amount of 10^5 cells per 150 μL was added to each of the wells of a culture plate. PHA was added so as to attain a final concentration of 1 μg/mL. A peptide of the present invention or any of different gangliosides in PBS was added, and the mixture was incubated for 96 hours. A supernatant (100 μL) was obtained from each well. The IL-2 activity of the supernatant was determined through use of IL-2-dependent mouse cells, CTLL2. Briefly, the supernatant (100 μL) diluted 2 to 50-fold with a medium was added to the wells in an amount of 10^4 CTLL2 cells/well, followed by incubation at 37° C. for 48 hours. Subsequently, 3H-thymidine (0.5 μCi) was added to each well, followed by incubation for 6 hours. CTLL2 cells were recovered on a paper filter and counted for 3H.

[4] = test system: T-cell-rich lymphocytes / IL-2-dependent CTLL2 cells; assay: Cell response test: IL-2 activity (3H thymidine up-take of CTLL2 cells) in supernatant of spleen cells of mice immunized with GD3; type: cell-based, mouse; conditions: mice immunized with GD3
Method: Similar to the case of immunization with R4-KLH, antiserum samples were also prepared through immunization with GD3 (30 μg).
as §6

Anti-GD2 antibody = assay: ELISA of immobilized MAP-form peptides with control anti-GD2 antibody; type: binding; conditions: MAP form 100 ng/well
Method: as §4, §5

[5] = stimulant 1 μg/ml, supernatant dilution 1/20
[6] = stimulant 1 μg/ml, supernatant dilution 1/50
[7] = stimulant 1 μg/ml, supernatant dilution ½
[8] = stimulant 1 μg/ml, supernatant dilution ⅕
[9] = stimulant 2 μg/ml, supernatant dilution 1/20
[10] = stimulant 2 μg/ml, supernatant dilution 1/50
[11] = stimulant 2 μg/ml, supernatant dilution ½
[12] = stimulant 2 μg/ml, supernatant dilution ⅕
[13] = stimulant 5 μg/ml, supernatant dilution 1/20
[14] = stimulant 5 μg/ml, supernatant dilution 1/50
[15] = stimulant 5 μg/ml, supernatant dilution ½
[16] = stimulant 5 μg/ml, supernatant dilution ⅕

## PHFDSLLYPCELLGC (PHFDSLLYPCQLLGC) [GD3R2, tested as phage clone, MAP form or peptide]
GD3 antibody 4F6 [1]; 10^9 titer/well
  absorbance OD450-OD620, binding to GD3 antibody 4F6: 0.055 and 0.034
GD3 antibody 4F6 [1]; 10^10 titer/well
  absorbance OD450-OD620, binding to GD3 antibody 4F6: 0.128 and 0.109
Anti-OAcGD3 antibody; Serum % 12.50%
  ELISA absorbance, Anti-OAcGD3 antibody: 0.021
Anti-OAcGD3 antibody; Serum % 25%
  ELISA absorbance, Anti-OAcGD3 antibody: 0.023
Anti-OAcGD3 antibody; Serum % 50%
  ELISA absorbance, Anti-OAcGD3 antibody: 0.027
Anti-OAcGD3 antibody; Serum % 100%
  ELISA absorbance, Anti-OAcGD3 antibody: 0.038
GD3 antibody 4F6 [2]; Serum % 12.50%
  ELISA absorbance, Anti-GD3 antibody: 0.055
GD3 antibody 4F6 [2]; Serum % 25%
  ELISA absorbance, Anti-GD3 antibody: 0.105
GD3 antibody 4F6 [2]; Serum % 50%
  ELISA absorbance, Anti-GD3 antibody: 0.159
GD3 antibody 4F6 [2]; Serum % 100%
  ELISA absorbance, Anti-GD3 antibody: 0.264
[3]; [5]
  3H Thymidine up-take into CTLL2 cells, mean ± SE (4 wells): 745 ± 136
[3]; [6]
  3H Thymidine up-take into CTLL2 cells, mean ± SE (4 wells): 178 ± 38
[3]; [7]
  3H Thymidine up-take into CTLL2 cells, mean ± SE (4 wells): 2857 ± 493
[3]; [8]
  3H Thymidine up-take into CTLL2 cells, mean ± SE (4 wells): 1714 ± 239
[3]; [9]
  3H Thymidine up-take into CTLL2 cells, mean ± SE (4 wells): 694 ± 141
[3]; [10]
  3H Thymidine up-take into CTLL2 cells, mean ± SE (4 wells): 163 ± 41
[3]; [11]
  3H Thymidine up-take into CTLL2 cells, mean ± SE (4 wells): 2764 ± 322
[3]; [12]
  3H Thymidine up-take into CTLL2 cells, mean ± SE (4 wells): 1653 ± 286
[3]; [13]
  3H Thymidine up-take into CTLL2 cells, mean ± SE (4 wells): 748 ± 162
[3]; [14]
  3H Thymidine up-take into CTLL2 cells, mean ± SE (4 wells): 174 ± 32
[3]; [15]
  3H Thymidine up-take into CTLL2 cells, mean ± SE (4 wells): 2849 ± 396
[3]; [16]
  3H Thymidine up-take into CTLL2 cells, mean ± SE (4 wells): 1628 ± 245
[4]; [5]
  3H Thymidine up-take into CTLL2 cells, mean ± SE (4 wells): 792 ± 88
[4]; [6]
  3H Thymidine up-take into CTLL2 cells, mean ± SE (4 wells): 185 ± 31
[4]; [7]
  3H Thymidine up-take into CTLL2 cells, mean ± SE (4 wells): 2957 ± 326
[4]; [8]
  3H Thymidine up-take into CTLL2 cells, mean ± SE (4 wells): 1784 ± 164
[4]; [9]
  3H Thymidine up-take into CTLL2 cells, mean ± SE (4 wells): 856 ± 107
[4]; [10]
  3H Thymidine up-take into CTLL2 cells, mean ± SE (4 wells): 192 ± 40
[4]; [11]
  3H Thymidine up-take into CTLL2 cells, mean ± SE (4 wells): 3057 ± 321
[4]; [12]
  3H Thymidine up-take into CTLL2 cells, mean ± SE (4 wells): 1719 ± 184
[4]; [13]
  3H Thymidine up-take into CTLL2 cells, mean ± SE (4 wells): 931 ± 124
[4]; [14]
  3H Thymidine up-take into CTLL2 cells, mean ± SE (4 wells): 203 ± 36
[4]; [15]
  3H Thymidine up-take into CTLL2 cells, mean ± SE (4 wells): 3022 ± 316
[4]; [16]
  3H Thymidine up-take into CTLL2 cells, mean ± SE (4 wells): 1717 ± 198
Anti-GD2 antibody; Serum % 12.50%
  ELISA absorbance, Anti-GD2 antibody: 0.052
Anti-GD2 antibody; Serum % 25%
  ELISA absorbance, Anti-GD2 antibody: 0.071
Anti-GD2 antibody; Serum % 50%
  ELISA absorbance, Anti-GD2 antibody: 0.079
Anti-GD2 antibody; Serum % 100%
  ELISA absorbance, Anti-GD2 antibody: 0.132
